{"source": "patent US8623418B2", "about": "“Pharmaceutical composition” (Alpharma Pharmaceuticals LLC, priority 2007, dated 2014)", "origin": "cited, not measured here", "conditions": "in vivo"}
{"smiles": "O=C1CC[C@@]2(O)[C@H]3Cc4ccc(O)c5c4[C@@]2(CCN3CC2CC2)[C@H]1O5", "note": "[naltrexone]", "values": [{"measurement": "parent drug and metabolites excreted by the kidney", "value": "53-79 % of the dose"}]}
